Test results as given in ChEMBL document CHEMBL5725899, “Benzofurans substituted with primary benzamide as HCV inhibitors” (2018).

Experiment: HCV Replicon Luciferase Assay: To evaluate compound efficacy, titrated compounds were transferred to sterile 384-well tissue culture treated plates, and the plates were seeded with HCV replicon cells (50 μL at a density of 2.4×10^3 cells/well) in DMEM containing 4% FBS (final DMSO concentration at 0.5%). After 3 days incubation at 37° C., cells were analyzed for Renilla Luciferase activity using the EnduRen substrate (Promega cat #E6485) according to the manufacturer's directions. Briefly, the EnduRen substrate was diluted in DMEM and then added to the plates to a final concentration of 7.5 μM. The plates were incubated for at least 1 h at 37° C. then read on a Viewlux Imager (PerkinElmer) using a luminescence program. The 50% effective concentration (EC50) was calculated using the four-parameter logistic formula noted above.To assess cytotoxicity of compounds, Cell Titer-Blue (Promega) was added to the EnduRen-containing plates and incubated for at least 4 hrs at 37° C. The fluorescence signal from each well was read using a Viewlux Imager. All CC50 values were calculated using the four-parameter logistic formula.
Conditions: 72 h

Row | Compound | EC50 [nM]
1 | CNC(=O)c1c(-c2ccc(F)cc2)oc2cc(N(CCF)S(C)(=O)=O)c(-c3cccc(C(=O)N[C@H](COC)C4CC4)c3)cc12 | < 100
2 | CNC(=O)c1c(-c2ccc(F)cc2)oc2cc(N(CCF)S(C)(=O)=O)c(-c3cccc(C(=O)N[C@@H](COC)C4CC4)c3)cc12 | < 100
